Common to all, as to type: cell-based
The target in experiment [1] is T1, long form of human GPR120 (Homo sapiens, UniProt Q5NUL3).
T1 construct: host or cells: PathHunter CHO-K1 GPR120 β-Arrestin Cell Line
Nature of the experiment: Human GPR120 DiscoveRx PathHunter Beta-Arrestin assay, Procedure β-arrestin A. The text has this:
Human GPR120 DiscoveRx PathHunter® Beta-Arrestin Assay Assay Principle:
The binding of an agonist (medium/long chain fatty acids or small molecule agonists) to the G-protein-coupled receptor GPR120 activates phospholipase C, leading to release of intracellular Ca^+2 through the generation of inositol 1,4,5-trisphosphate (InsP3 or IP3). GPR120 activation can also trigger intracellular signaling via recruitment of Beta-Arrestin. In the present method, agonist-induced activation of the human GPR120 receptor is monitored through the use of PathHunter® CHO-K1 GPR120 Beta-Arrestin Cell Line engineered by DiscoveRx, as detailed below. The cell lines are designed to co-express both the ProLink/Enzyme Donor (PK)-tagged GPCR and the Enzyme […] (EA)-tagged Beta-Arrestin fusion proteins. Upon GPR120 receptor stimulation/activation, the EA-tagged Beta-Arrestin portion is translocated to the tagged receptor, where the two enzyme fragments are brought within close proximity. Under these conditions, these fragments can interact and form an active Beta-gal enzyme complex through Enzyme Fragment Complementation (EFC). This active Beta-gal complex can enzymatically hydrolyse the substrate to produce a detectable light signal; therefore, activation as a function of agonist concentration can be expressed as an EC50 value to determine relative compound activities. This in vitro assay therefore serves to assess compound agonist activity of the GPR120.
In Procedure β-arrestin A, the cell used were PathHunter® CHO-K1 GPR120 β-Arrestin Cell Line, expressing the long form of human GPR120 (Genbank accession number NM_181745), with 3000 cells per well.
The selected CHO-K1 GPR120 β-Arrestin cells were cultured in Ham's F12 media supplemented with 10% fetal bovine serum (FBS), 1% Glutamine, 1×p/s, 800 μg/mL G418 and 300 μg/mL Hygromycin B (for selection). Cell stocks were maintained and grown in a sub-confluent state using standard cell culture procedures. The day before the experiment, the cells were harvested with non-enzymatic cell dissociation buffer and re-suspended in complete growth media at the desired concentration. A Corning 384-plate was then seeded with the proper number of cells in a volume of 25 μL, per well. The seeded plates were incubated overnight at 37° C.
On the day of the experiment, the Assay Buffer containing (a) HBSS with Ca^++ and Mg^++, (b) 20 mM HEPES, and (c) 0.1% BSA stabilizer (pH 7.4) was prepared. The growth medium was gently removed from the cell plates and 20 μL of Assay Buffer added to each well. The plate was then incubated at 37° C. for 60 min. Test compounds were serially diluted in Assay Buffer to desired concentrations (more particularly to one or more of the following μM concentrations: 25, 12.5, 6.25, 3.12, 1.56, 0.78, 0.39, 0.19, 0.10, 0.05, 0.02, 0.01). Five μL of compound dilution was then added to each well and the plate incubated at 37° C. for 90 min. The detection reagents were prepared according to the manufacture's instruction. Twelve μL of the detection reagents were added to each well and the plate incubated at room temperature for 60 min.
The plates were read on an EnVision instrument, using Protocol name: Luminescence, Plate type: 384 Costar, Measurement height: 3 mm, Measurement time: 1 s, Aperture: 384 Plate aperture. The % Activity relative to the positive control was calculated using the following equation:
The % Activity values were plotted versus the concentration of test compound and fitted to a sigmoidal dose-response curve with a Hill slope=1 (fixed value) using nonlinear regression with GraphPad Prism 5.0 to calculate the EC50 values. The Fitting Equation was: Y=Bottom+(Top-Bottom)/(1+10^((Log EC50−X)*HillSlope)), where X is the log of the concentration and Y is the response.

A further experiment addresses T2, Human GPR120 short form (Homo sapiens, UniProt Q5NUL3).
T2 construct: expressed in transfected cells
T2 sequence (Q5NUL3 1-361): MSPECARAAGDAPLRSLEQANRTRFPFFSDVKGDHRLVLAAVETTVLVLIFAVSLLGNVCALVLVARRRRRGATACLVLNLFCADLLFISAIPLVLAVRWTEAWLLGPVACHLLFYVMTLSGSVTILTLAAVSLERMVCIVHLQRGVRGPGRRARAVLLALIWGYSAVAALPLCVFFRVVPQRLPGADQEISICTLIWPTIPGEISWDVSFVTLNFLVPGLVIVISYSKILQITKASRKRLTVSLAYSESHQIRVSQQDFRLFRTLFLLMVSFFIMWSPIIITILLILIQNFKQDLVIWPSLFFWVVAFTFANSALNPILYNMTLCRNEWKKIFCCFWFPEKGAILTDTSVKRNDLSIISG
Nature of the experiment: Human GPR120 calcium flux assay, Procedure Calcium B (4200 cells/well). The procedure, abridged:
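HEK293 cells stably expressing human GPR120 (NM_001195755.1), 4200 cells/well, starved 1 h and loaded with Fluo-4 NW plus probenecid. Ligand-evoked calcium flux read on FLIPR for 300 s after a 10 s baseline. RFU = Fmax−Fmin; EC50 from four-parameter concentration-response fit.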

A further experiment has as its target T3, human GPR40 (Homo sapiens, UniProt O14842).
T3 construct: expressed in transfected cells
Nature of the experiment: GPR40 calcium flux assay, human GPR40. The conditions noted are these: HEK293 cells stably expressing GPR40; table does not say human or rat. The procedure, abridged: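 Cells preincubated 1 h at 37° C. in HBSS, 20 mM HEPES, 0.1% BSA, then Fluo 8 calcium dye 30 min at 37° C. and 15 min at room temperature.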

T3 sequence (O14842 whole entry): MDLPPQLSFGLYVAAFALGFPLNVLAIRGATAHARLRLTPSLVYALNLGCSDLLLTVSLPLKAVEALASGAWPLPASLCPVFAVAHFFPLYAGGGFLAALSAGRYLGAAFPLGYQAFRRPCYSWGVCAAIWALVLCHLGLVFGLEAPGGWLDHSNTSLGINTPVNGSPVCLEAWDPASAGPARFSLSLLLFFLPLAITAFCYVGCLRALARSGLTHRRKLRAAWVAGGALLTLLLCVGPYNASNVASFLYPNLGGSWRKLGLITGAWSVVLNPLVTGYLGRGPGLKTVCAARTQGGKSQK
T1 sequence (Q5NUL3 1-377 isoform Q5NUL3-1): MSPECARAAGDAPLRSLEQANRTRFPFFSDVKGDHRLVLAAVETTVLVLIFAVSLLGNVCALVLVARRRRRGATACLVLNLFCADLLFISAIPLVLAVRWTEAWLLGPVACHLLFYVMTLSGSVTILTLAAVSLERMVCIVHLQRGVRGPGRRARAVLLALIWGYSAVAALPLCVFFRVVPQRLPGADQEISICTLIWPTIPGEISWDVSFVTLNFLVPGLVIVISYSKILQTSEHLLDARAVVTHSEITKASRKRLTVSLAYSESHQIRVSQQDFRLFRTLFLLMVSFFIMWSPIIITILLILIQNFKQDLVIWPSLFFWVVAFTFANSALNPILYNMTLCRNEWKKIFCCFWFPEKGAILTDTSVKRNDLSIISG
T1 sequence (P32121 whole entry partner): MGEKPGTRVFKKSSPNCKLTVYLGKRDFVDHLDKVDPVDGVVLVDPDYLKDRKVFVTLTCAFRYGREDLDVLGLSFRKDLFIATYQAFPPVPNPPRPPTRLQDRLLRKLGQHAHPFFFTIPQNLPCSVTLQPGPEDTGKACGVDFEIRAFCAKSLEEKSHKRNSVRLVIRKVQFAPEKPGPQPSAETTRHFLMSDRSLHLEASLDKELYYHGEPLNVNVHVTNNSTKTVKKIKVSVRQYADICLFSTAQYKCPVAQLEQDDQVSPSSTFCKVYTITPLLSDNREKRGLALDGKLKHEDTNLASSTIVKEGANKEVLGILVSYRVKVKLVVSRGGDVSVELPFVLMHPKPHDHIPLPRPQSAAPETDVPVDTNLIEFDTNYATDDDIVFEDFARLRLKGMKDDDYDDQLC

Regarding `O=C(O)CCc1cc(F)c(OCC2=C(c3ccc(F)c(F)c3)CC(F)(F)C2)c(F)c1` [Compound 184, 3-[4-[[2-(3,4-difluorophenyl)-4,4-difluoro-cyclopenten-1-yl]methoxy]-3,5-difluoro-phenyl]Propanoic Acid], the half-maximal effective concentration (EC50) in experiment [1] was 431 nM; on Human GPR120 short form, 91 nM; at human GPR40, greater than 5000 nM.

Regarding `O=C(O)CCc1cc(F)c(OCC2=C(c3ccccc3)CCC(F)(F)C2)c(F)c1` [Compound 539, 3-[4-[(5,5-difluoro-2-phenyl-cyclohexen-1-yl)methoxy]-3,5-difluoro-phenyl]Propanoic Acid], the figures for the EC50 (in experiment [1]; at Human GPR120 short form; at human GPR40) were 292 nM, 192 nM and greater than 5000 nM, respectively.

`O=C(O)CCc1ccc(OCC2=C(c3ccc(F)cc3)CC(F)(F)C2)c(Cl)c1` [Compound 203, 3-[3-chloro-4-[[4,4-difluoro-2-(4-fluorophenyl)cyclopenten-1-yl]methoxy]phenyl]Propanoic Acid]: the figures for the EC50 (in experiment [1]; on Human GPR120 short form; on human GPR40) were 56 nM, 80 nM and greater than 5000 nM, respectively.

With `O=C(O)CCc1ccc(OCC2=C(c3ccc(F)cc3)CC(F)(F)C2)c(F)c1` [Compound 214, 3-[4-[[4,4-difluoro-2-(4-fluorophenyl)cyclopenten-1-yl]methoxy]-3-fluoro-phenyl]Propanoic Acid], the half-maximal effective concentration (EC50) in experiment [1] is 84 nM; at Human GPR120 short form, 78 nM; on human GPR40 it was greater than 5000 nM.

On to `Cc1c(CCC(=O)O)ccc(OCC2=C(c3ccc(Cl)cc3)CCC(C(C)C)C2)c1C` (centres unmarked) [Compound 501, 3-[4-[[2-(4-chlorophenyl)-5-isopropyl-cyclohexen-1-yl]methoxy]-2,3-dimethyl-phenyl]Propanoic Acid], for which the concentration giving a half-maximal response (EC50) in experiment [1] was 155 nM; at Human GPR120 short form, 364 nM; on human GPR40, greater than 5000 nM.

For `O=C(O)CCc1ccc(OCC2=C(c3ccc(F)cc3)CCC(F)(F)C2)cc1` [Compound 499, 3-[4-[[5,5-difluoro-2-(4-fluorophenyl)cyclohexen-1-yl]methoxy]phenyl]Propanoic Acid], the EC50 in experiment [1] was 132 nM; on Human GPR120 short form, 215 nM; at human GPR40, greater than 5000 nM.

Consider `Cc1ccc(C2=C(COc3ccc(CCC(=O)O)cc3C)CC(F)(F)CC2)cc1F` [Compound 530, 3-[4-[[5,5-difluoro-2-(3-fluoro-4-methyl-phenyl)cyclohexen-1-yl]methoxy]-3-methyl-phenyl]Propanoic Acid], for which the EC50 in experiment [1] is 73 nM; at Human GPR120 short form, 68 nM; at human GPR40, greater than 5000 nM.

In the case of `Cc1ncc(C2=C(COc3ccc(CCC(=O)O)cc3C)CC(F)(F)CC2)s1` [Compound 550, 3-[4-[[5,5-difluoro-2-(2-methylthiazol-5-yl)cyclohexen-1-yl]methoxy]-3-methyl-phenyl]Propanoic Acid], the results for the EC50 (in experiment [1]; on Human GPR120 short form; on human GPR40) were 437 nM, 482 nM and 642 nM, respectively.

Turning to `COc1ncc(C2=C(COc3ccc(CCC(=O)O)c(C)c3C)CCC2)cc1F` [Compound 223, 3-[4-[[2-(5-fluoro-6-methoxy-3-pyridyl)cyclopenten-1-yl]methoxy]-2,3-dimethyl-phenyl]Propanoic Acid], the values for the EC50 (in experiment [1]; on Human GPR120 short form; on human GPR40) were 227 nM, 156 nM and greater than 5000 nM, respectively.

Consider `Cc1cc(CCC(=O)O)ccc1OCC1=C(c2ccc(F)cc2)CCC1` [Compound 42], for which the concentration for a half-maximal effect (EC50) in experiment [1] is 340 nM; at Human GPR120 short form, 61 nM; at human GPR40, greater than 5000 nM.

As for `Cc1cc(CCC(=O)O)ccc1OCC1=C(c2ccc(Cl)cc2)CC(F)(F)C1` [Compound 166, 3-[4-[[2-(4-chlorophenyl)-4,4-difluoro-cyclopenten-1-yl]methoxy]-3-methyl-phenyl]Propanoic Acid], the figures for the EC50 (in experiment [1]; at Human GPR120 short form; on human GPR40) were 29 nM, 24 nM and 4000 nM, respectively.

In the case of `Cc1c(CCC(=O)O)cc(Br)c(OCC2=C(c3ccc(Cl)cc3)CCC2)c1Br` [Compound 68], the EC50 is 1940 nM in experiment [1], 517 nM on Human GPR120 short form and greater than 5000 nM on human GPR40.

`O=C(O)CCc1ccc(OCC2=C(c3ccc(F)cc3)CCC(F)(F)C2)cc1C(F)(F)F` [Compound 489, 3-[4-[[5,5-difluoro-2-(4-fluorophenyl)cyclohexen-1-yl]methoxy]-2-(trifluoromethyl)phenyl]Propanoic Acid]: the values for the EC50 (in experiment [1]; on Human GPR120 short form; at human GPR40) were 312 nM, 173 nM and 825 nM, respectively.

`O=C(O)CCc1ccc(OCC2=C(c3ccc(F)cc3)CC(F)(F)C2)cc1` [Compound 228, 3-[4-[[4,4-difluoro-2-(4-fluorophenyl)cyclopenten-1-yl]methoxy]phenyl]Propanoic Acid]: the figures for the EC50 (in experiment [1]; on Human GPR120 short form; at human GPR40) were 238 nM, 124 nM and 4930 nM, respectively.

For `Cc1c(CCC(=O)O)ccc(OCC2=C(c3ccccc3)CCC(F)(F)C2)c1C` [Compound 537, 3-[4-[(5,5-difluoro-2-phenyl-cyclohexen-1-yl)methoxy]-2,3-dimethyl-phenyl]Propanoic Acid], the 50% effective concentration (EC50) in experiment [1] is 161 nM; on Human GPR120 short form, 83 nM; at human GPR40 it was greater than 5000 nM.

As for `Cc1cc(OCC2=C(c3ccc(Cl)cc3)CCC(F)(F)C2)ccc1CCC(=O)O` [Compound 519, 3-[4-[[2-(4-chlorophenyl)-5,5-difluoro-cyclohexen-1-yl]methoxy]-2-methyl-phenyl]Propanoic Acid], the values for the 50% effective concentration (EC50) (in experiment [1]; on Human GPR120 short form; at human GPR40) were 772 nM, 222 nM and 3310 nM, respectively.

In the case of `O=C(O)CCc1cc(F)c(OCC2=C(c3ccc(F)cc3)CC(F)(F)C2)c(F)c1` [Compound 183, 3-[4-[[4,4-difluoro-2-(4-fluorophenyl)cyclopenten-1-yl]methoxy]-3,5-difluoro-phenyl]Propanoic Acid], the EC50 in experiment [1] is 185 nM; at Human GPR120 short form it was 51 nM; on human GPR40 it was greater than 5000 nM.

For `O=C(O)CCc1cc(F)c(OCC2=C(c3ccc(F)cc3F)CCC(F)(F)C2)c(F)c1` [Compound 536, 3-[4-[[2-(2,4-difluorophenyl)-5,5-difluoro-cyclohexen-1-yl]methoxy]-3,5-difluoro-phenyl]Propanoic Acid], the half-maximal effective concentration (EC50) was 215 nM in experiment [1], 207 nM on Human GPR120 short form and greater than 5000 nM on human GPR40.

For the molecule `CC(Cc1ccc(OCC2=C(c3ccc(Cl)cc3)CCC2)c(F)c1)C(=O)O` (centres unmarked) [Compound 34, 3-[4-[[2-(4-chlorophenyl)cyclopenten-1-yl]methoxy]-3-fluoro-phenyl]-2-methyl-Propanoic Acid], the EC50 is 680 nM in experiment [1] and greater than 5000 nM at human GPR40.

The record behind these values is patent US11230526B1, “Cylcoalkenyl derivatives useful as agonists of the GPR120 and/or GPR40 receptors” (Janssen Pharmaceutica NV, priority 2018, dated 2022).
